Assay results reported in patent US7074789B2, “Kinase inhibitors” (Amgen Inc., priority 1999, dated 2006).

What was measured:
Type in all cases: biochemical
Lck = molecular target: T1, Lck (Homo sapiens, UniProt P06239); test: Kinase inhibition assay (33P transfer), Lck; conditions: Table 3, class symbols; read-out: Lck-1
T1 construct: Kinases are expressed as either kinase domains or full length constructs; made in house
How it was run: (§1)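 Steps: express kinase as GST or polyHistidine fusion in E. coli or High Five cells; optionally co-express or mix with regulatory polypeptides; incubate with 33P-ATP and plate-attached poly(Glu,Tyr) 4:1 or poly(Arg,Ser) 3:1; wash with 0.5% phosphoric acid; count by liquid scintillation.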

Zap-70 = molecular target: T2, Zap-70 (Homo sapiens, UniProt P43403); test: Kinase inhibition assay (33P transfer), Zap-70; conditions: Table 3, class symbols; read-out: Zap-1
T2 construct: Kinases are expressed as either kinase domains or full length constructs; made in house
T2 sequence (P43403 1-619): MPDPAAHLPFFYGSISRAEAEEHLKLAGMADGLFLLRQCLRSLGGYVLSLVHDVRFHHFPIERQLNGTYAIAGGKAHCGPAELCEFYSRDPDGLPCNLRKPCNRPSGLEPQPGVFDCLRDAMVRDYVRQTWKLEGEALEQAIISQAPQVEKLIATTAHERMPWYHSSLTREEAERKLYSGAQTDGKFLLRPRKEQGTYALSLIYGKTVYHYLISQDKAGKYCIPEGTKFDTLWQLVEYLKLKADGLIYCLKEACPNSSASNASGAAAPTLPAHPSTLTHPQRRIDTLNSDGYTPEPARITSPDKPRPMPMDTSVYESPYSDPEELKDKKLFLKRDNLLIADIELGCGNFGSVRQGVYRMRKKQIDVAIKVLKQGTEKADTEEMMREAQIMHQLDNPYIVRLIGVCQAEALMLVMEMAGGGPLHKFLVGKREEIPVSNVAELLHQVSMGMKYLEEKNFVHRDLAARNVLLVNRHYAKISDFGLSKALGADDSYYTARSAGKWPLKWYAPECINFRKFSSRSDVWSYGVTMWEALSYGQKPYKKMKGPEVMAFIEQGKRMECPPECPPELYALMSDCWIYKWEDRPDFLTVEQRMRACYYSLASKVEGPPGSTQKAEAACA
How it was run: as §1

Itk = molecular target: T3, Itk (Homo sapiens, UniProt Q08881); test: Kinase inhibition assay (33P transfer), Itk; conditions: Table 3, class symbols; read-out: Itk-1
T3 construct: Kinases are expressed as either kinase domains or full length constructs; made in house
T3 sequence (Q08881 1-620): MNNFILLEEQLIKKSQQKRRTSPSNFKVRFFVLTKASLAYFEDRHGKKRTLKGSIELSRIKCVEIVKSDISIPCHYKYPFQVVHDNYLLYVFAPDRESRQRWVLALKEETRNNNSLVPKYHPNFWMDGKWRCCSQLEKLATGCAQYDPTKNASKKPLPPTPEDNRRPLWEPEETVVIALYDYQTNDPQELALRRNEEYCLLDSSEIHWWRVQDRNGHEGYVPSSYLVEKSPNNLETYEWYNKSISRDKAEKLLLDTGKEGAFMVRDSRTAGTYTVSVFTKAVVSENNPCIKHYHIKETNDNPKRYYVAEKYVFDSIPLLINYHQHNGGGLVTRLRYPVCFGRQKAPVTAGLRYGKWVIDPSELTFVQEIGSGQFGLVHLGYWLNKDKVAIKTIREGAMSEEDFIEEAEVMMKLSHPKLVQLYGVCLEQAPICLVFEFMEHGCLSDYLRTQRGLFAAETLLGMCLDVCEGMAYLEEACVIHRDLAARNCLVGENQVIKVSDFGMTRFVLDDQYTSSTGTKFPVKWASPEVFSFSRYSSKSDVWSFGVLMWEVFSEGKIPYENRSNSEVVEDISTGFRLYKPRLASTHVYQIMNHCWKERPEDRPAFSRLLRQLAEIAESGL
How it was run: (§2)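 Recombinant kinase domains or full-length GST- or His-tagged constructs, from E. coli or baculovirus/High Five cells, sometimes with regulatory polypeptides. Transfer of 33P from ATP to plate-bound poly(Glu,Tyr) 4:1 or poly(Arg,Ser) 3:1 counted by liquid scintillation after phosphoric acid wash; IC50 is the concentration halving incorporation.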

EGFR = molecular target: T4, EGFR (Homo sapiens, UniProt P00533); test: Kinase inhibition assay (33P transfer), EGFR; conditions: Table 2, class symbols A-E; read-out: EGFR-1
T4 construct: Kinases are expressed as either kinase domains or full length constructs; made in house
How it was run: as §2

ErbB2 = molecular target: T5, ErbB2 (Homo sapiens, UniProt P04626); test: Kinase inhibition assay (33P transfer), ErbB2; conditions: read-out: ErbB2-2
T5 construct: Kinases are expressed as either kinase domains or full length constructs; made in house
T5 sequence (P04626 23-1255, species assumed): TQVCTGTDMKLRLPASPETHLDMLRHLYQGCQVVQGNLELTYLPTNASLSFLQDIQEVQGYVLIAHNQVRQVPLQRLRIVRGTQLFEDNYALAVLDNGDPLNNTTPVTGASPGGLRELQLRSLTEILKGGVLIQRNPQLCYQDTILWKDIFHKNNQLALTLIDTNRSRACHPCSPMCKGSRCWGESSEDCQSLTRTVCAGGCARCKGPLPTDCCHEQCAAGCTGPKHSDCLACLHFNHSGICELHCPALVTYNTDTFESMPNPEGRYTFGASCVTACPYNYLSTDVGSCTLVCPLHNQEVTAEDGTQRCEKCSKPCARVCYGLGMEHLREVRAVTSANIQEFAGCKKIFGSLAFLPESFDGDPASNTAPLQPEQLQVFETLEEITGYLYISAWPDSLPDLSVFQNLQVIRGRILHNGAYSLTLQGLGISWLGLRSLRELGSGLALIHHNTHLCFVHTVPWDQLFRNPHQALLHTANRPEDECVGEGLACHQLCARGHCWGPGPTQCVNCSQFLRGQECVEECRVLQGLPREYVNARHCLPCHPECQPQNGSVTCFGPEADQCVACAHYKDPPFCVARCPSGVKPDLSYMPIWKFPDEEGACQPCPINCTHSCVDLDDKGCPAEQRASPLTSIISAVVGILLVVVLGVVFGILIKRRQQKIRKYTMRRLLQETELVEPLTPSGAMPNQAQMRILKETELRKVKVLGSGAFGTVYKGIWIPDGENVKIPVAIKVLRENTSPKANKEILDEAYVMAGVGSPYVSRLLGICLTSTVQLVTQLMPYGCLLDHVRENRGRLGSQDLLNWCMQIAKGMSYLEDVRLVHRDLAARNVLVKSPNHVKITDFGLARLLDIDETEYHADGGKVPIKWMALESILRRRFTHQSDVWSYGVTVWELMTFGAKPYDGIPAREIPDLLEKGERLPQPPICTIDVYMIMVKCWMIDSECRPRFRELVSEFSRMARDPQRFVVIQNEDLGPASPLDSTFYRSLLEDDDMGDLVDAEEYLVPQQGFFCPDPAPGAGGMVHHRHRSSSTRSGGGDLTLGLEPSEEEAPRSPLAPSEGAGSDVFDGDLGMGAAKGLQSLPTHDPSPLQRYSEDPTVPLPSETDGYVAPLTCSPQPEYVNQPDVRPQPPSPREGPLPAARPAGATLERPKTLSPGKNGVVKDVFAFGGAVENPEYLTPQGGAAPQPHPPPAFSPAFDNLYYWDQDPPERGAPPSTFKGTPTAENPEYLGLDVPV
How it was run: as §2

Kdr = molecular target: T6, Kdr (Homo sapiens, UniProt P35968); test: Kinase inhibition assay (33P transfer), Kdr; conditions: Table 3, class symbols; read-out: KDR-1
T6 construct: Kinases are expressed as either kinase domains or full length constructs; made in house
T6 sequence (P35968 20-1356, species assumed): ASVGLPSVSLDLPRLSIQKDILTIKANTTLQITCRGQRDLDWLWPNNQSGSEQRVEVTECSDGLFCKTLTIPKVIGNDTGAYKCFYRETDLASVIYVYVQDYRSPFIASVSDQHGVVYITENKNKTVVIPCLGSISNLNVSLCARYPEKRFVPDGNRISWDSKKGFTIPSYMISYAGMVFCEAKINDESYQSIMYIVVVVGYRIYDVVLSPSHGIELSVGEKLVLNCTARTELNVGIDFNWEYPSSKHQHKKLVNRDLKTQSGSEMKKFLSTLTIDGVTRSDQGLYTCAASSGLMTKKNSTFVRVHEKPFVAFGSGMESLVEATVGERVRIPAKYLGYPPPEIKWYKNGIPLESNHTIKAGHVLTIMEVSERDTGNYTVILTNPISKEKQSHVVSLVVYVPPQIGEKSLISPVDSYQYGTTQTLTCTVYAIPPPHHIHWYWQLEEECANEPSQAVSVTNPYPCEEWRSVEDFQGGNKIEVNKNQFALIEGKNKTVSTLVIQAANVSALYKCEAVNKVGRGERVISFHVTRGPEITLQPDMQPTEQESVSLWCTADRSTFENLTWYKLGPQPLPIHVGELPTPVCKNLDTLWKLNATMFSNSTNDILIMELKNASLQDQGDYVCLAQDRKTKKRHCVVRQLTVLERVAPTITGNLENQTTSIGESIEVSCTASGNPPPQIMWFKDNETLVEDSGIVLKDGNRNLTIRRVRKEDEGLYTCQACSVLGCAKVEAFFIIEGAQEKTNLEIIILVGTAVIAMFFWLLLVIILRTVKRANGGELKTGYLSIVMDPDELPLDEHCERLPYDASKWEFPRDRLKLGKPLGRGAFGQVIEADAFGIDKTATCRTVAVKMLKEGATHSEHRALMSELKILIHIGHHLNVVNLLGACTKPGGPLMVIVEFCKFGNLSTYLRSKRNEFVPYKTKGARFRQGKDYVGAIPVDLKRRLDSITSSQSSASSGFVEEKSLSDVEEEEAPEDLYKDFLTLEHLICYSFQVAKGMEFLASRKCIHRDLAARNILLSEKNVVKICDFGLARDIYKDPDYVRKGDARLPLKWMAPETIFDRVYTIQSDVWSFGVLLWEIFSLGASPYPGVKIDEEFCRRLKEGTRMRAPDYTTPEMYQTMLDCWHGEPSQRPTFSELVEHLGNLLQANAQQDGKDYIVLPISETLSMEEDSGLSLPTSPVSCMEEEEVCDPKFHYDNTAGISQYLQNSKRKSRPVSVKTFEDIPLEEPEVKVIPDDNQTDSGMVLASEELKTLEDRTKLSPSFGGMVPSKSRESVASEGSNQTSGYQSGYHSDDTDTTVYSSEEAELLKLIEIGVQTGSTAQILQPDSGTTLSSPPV
How it was run: as §1

c-Met = molecular target: T7, c-Met (Homo sapiens, UniProt P08581); test: Kinase inhibition assay (33P transfer), c-Met; conditions: Table 2, class symbols A-E; read-out: Met-1
T7 construct: Kinases are expressed as either kinase domains or full length constructs; made in house
How it was run: as §2

AKT = molecular target: T8, AKT (Homo sapiens, UniProt Q9Y243); test: Kinase inhibition assay (33P transfer), AKT; conditions: Table 2, class symbols A-E; read-out: AKT3-1
T8 construct: Kinases are expressed as either kinase domains or full length constructs; made in house
T8 sequence (Q9Y243 whole entry, the tested form may be a part): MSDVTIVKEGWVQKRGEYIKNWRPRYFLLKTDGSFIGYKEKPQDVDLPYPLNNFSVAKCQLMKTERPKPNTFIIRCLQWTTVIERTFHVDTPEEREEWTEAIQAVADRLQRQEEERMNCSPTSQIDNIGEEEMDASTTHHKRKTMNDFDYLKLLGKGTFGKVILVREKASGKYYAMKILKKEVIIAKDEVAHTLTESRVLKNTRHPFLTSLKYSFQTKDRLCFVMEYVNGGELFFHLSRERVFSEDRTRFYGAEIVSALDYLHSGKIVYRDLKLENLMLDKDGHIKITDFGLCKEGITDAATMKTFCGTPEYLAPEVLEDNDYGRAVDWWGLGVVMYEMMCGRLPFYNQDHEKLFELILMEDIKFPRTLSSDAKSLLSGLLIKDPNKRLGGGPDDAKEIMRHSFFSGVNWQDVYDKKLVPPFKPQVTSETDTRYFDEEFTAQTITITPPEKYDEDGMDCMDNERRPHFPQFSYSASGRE
How it was run: as §1

IGFR-1 = molecular target: T9, IGFR-1 (Homo sapiens, UniProt P08069); test: Kinase inhibition assay (33P transfer), IGFR-1; conditions: Table 2, class symbols A-E
T9 construct: Kinases are expressed as either kinase domains or full length constructs; made in house
T9 sequence (P08069 31-1367): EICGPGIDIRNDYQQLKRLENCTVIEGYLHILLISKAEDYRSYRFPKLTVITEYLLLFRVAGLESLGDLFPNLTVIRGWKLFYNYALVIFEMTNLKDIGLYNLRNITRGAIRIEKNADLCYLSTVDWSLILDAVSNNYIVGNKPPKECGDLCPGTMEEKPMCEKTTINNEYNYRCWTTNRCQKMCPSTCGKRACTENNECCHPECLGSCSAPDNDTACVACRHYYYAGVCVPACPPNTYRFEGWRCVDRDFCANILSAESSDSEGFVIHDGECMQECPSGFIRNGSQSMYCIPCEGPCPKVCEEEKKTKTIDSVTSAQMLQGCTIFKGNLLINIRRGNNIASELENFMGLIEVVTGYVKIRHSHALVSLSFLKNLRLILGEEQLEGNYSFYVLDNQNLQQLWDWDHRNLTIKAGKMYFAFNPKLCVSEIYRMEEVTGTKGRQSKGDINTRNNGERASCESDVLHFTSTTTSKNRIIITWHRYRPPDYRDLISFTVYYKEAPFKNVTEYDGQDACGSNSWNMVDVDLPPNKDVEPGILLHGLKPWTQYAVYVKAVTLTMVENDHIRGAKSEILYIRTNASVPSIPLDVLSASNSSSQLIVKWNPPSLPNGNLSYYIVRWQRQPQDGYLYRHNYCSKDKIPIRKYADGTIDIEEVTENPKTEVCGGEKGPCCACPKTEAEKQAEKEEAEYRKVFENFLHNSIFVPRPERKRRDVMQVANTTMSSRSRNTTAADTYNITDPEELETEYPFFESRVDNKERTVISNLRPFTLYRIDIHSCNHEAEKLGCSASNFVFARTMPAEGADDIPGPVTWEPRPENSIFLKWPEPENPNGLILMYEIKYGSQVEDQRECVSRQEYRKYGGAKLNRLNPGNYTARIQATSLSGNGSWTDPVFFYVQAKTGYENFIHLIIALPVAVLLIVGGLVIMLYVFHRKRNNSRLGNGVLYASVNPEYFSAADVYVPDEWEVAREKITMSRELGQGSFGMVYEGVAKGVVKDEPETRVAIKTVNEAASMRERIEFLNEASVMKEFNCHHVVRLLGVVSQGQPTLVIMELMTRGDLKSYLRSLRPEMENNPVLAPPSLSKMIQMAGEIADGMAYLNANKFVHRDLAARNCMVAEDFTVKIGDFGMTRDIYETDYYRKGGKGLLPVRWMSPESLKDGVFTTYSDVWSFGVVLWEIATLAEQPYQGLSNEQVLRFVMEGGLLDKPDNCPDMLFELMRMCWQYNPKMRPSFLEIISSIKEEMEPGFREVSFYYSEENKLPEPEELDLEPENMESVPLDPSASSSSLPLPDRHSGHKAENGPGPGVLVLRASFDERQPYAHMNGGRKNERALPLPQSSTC

PDGFRB = molecular target: T10, PDGFRB (Homo sapiens, UniProt P09619); test: Kinase inhibition assay (33P transfer), PDGFRB; conditions: read-out: PDGFRB-1
T10 construct: Kinases are expressed as either kinase domains or full length constructs; made in house

T1 sequence (P06239 whole entry, species assumed, the tested form may be a part): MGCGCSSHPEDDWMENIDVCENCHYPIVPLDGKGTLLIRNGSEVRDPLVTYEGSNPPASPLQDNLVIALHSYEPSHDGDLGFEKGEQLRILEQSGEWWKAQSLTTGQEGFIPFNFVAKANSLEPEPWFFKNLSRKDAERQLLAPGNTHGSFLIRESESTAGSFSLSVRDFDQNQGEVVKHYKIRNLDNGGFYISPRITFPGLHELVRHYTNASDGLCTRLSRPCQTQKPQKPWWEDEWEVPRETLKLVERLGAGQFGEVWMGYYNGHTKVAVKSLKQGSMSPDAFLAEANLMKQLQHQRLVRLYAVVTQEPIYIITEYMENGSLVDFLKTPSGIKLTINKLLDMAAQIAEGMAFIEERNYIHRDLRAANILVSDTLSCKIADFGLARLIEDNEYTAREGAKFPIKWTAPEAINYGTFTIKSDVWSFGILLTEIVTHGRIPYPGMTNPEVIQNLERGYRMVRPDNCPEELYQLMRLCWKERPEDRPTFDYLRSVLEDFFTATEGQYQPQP

| IC50 (Lck) | IC50 (Zap-70) | IC50 (Itk) | IC50 (EGFR) | IC50 (ErbB2) | IC50 (Kdr) | IC50 (c-Met) | IC50 (AKT) | IC50 (IGFR-1) | IC50 (PDGFRB) | SMILES |
| --- | --- | --- | --- | --- | --- | --- | --- | --- | --- | --- |
| > 10.6 µM | > 10.6 µM | 8.27 to 10.6 µM | > 10.6 µM | > 10.6 µM | > 10.6 µM | > 10.6 µM | > 10.6 µM | 8.27 to 10.6 µM | > 10.6 µM | COC(=O)c1ccc(-c2cc(Nc3ncnc(NCCN4CCNC4=O)n3)[nH]n2)cc1 [Compound 820] |
| 0.984 to 5.9 µM | > 11.1 µM | 0.984 to 5.9 µM | 0.984 to 5.9 µM | 0.984 to 5.9 µM | 0.984 to 5.9 µM | 0.984 to 5.9 µM | 5.9 to 8.61 µM | 5.9 to 8.61 µM | < 0.984 µM | COc1ccc(Nc2ncnc(Nc3ccc(N4CCCCC4)cc3)n2)cc1OC [Compound 899] |
| 0.801 to 4.8 µM | 7.01 to 9.01 µM | 4.8 to 7.01 µM | 4.8 to 7.01 µM | 0.801 to 4.8 µM | < 0.801 µM | 0.801 to 4.8 µM | 7.01 to 9.01 µM | 4.8 to 7.01 µM | < 0.801 µM | c1cc(Cn2ccnn2)cc(Nc2ncnc(-n3c(Nc4ccc5[nH]ccc5c4)nc4ccccc43)n2)c1 [Compound 963] |
| > 9.63 µM | > 9.63 µM | > 9.63 µM | > 9.63 µM | > 9.63 µM | 0.856 to 5.13 µM | > 9.63 µM | 5.13 to 7.49 µM | > 9.63 µM | 0.856 to 5.13 µM | COc1ccc(CNc2nc3ccccc3n2-c2ncnc(Nc3cccc(C(=O)O)c3)n2)cc1 [Compound 1070] |
| > 9.25 µM | > 9.25 µM | > 9.25 µM | < 0.822 µM | 0.822 to 4.93 µM | > 9.25 µM | 7.2 to 9.25 µM | > 9.25 µM | > 9.25 µM | > 9.25 µM | CN(c1ccc2c(cnn2Cc2ccccc2)c1)c1ncnc(Nc2cccc(Br)c2)n1 [Compound 667] |
| 1.05 to 6.31 µM | > 11.8 µM | 1.05 to 6.31 µM | 1.05 to 6.31 µM | 6.31 to 9.2 µM | 1.05 to 6.31 µM | > 11.8 µM | > 11.8 µM | < 1.05 µM | < 1.05 µM | COc1ccc(Nc2ncnc(Nc3ccc4ncsc4c3)n2)cc1OC [Compound 895] |
| > 9.52 µM | > 9.52 µM | 5.08 to 7.41 µM | 7.41 to 9.52 µM | 0.847 to 5.08 µM | > 9.52 µM | < 0.847 µM | > 9.52 µM | 0.847 to 5.08 µM | > 9.52 µM | COC(=O)c1ccc(-c2cc(Nc3ncnc(Nc4ccc(N5CCOCC5)cc4)n3)[nH]n2)cc1 [Compound 807] |
| 0.85 to 5.1 µM | > 9.56 µM | > 9.56 µM | 5.1 to 7.44 µM | 5.1 to 7.44 µM | 0.85 to 5.1 µM | > 9.56 µM | > 9.56 µM | > 9.56 µM | 0.85 to 5.1 µM | COc1cc(Nc2ncnc(-c3cccnc3NC3CCc4ccccc43)n2)cc(OC)c1OC (stereo not shown) [Compound 846] |
| 8.13 to 10.5 µM | > 10.5 µM | > 10.5 µM | 0.929 to 5.58 µM | 0.929 to 5.58 µM | < 0.929 µM | 8.13 to 10.5 µM | > 10.5 µM | > 10.5 µM | < 0.929 µM | O=C(O)Cc1cccc(Nc2ncnc(-c3cccnc3NCc3ccc(F)cc3)n2)c1 [Compound 1100] |
| 8.76 to 11.3 µM | 6.01 to 8.76 µM | 1 to 6.01 µM | < 1 µM | 1 to 6.01 µM | < 1 µM | 1 to 6.01 µM | 1 to 6.01 µM | 1 to 6.01 µM | 1 to 6.01 µM | O=S(=O)(O)c1cccc(Nc2ncnc(Nc3cc(-c4ccco4)[nH]n3)n2)c1 [Compound 825] |
| 1.03 to 6.16 µM | 1.03 to 6.16 µM | < 1.03 µM | < 1.03 µM | 1.03 to 6.16 µM | < 1.03 µM | < 1.03 µM | 1.03 to 6.16 µM | 1.03 to 6.16 µM | > 11.6 µM | O=C(O)/C=C/c1ccc(Nc2ncnc(Nc3cc(-c4ccco4)[nH]n3)n2)cc1 [Compound 886] |
| > 8.61 µM | > 8.61 µM | > 8.61 µM | > 8.61 µM | 0.765 to 4.59 µM | 4.59 to 6.7 µM | > 8.61 µM | > 8.61 µM | > 8.61 µM | 0.765 to 4.59 µM | COc1cc(Nc2ncnc(-c3cccnc3Nc3cccc(Oc4ccccc4)c3)n2)cc(OC)c1OC [Compound 840] |
| < 0.888 µM | > 9.99 µM | 7.77 to 9.99 µM | < 0.888 µM | 0.888 to 5.33 µM | < 0.888 µM | 5.33 to 7.77 µM | 7.77 to 9.99 µM | > 9.99 µM | < 0.888 µM | NC(=O)Cc1cccc(Nc2ncnc(-n3c(NCc4ccccc4)nc4ccccc43)n2)c1 [Compound 967] |
| 0.741 to 4.45 µM | > 8.34 µM | 4.45 to 6.49 µM | 0.741 to 4.45 µM | > 8.34 µM | < 0.741 µM | 0.741 to 4.45 µM | > 8.34 µM | 6.49 to 8.34 µM | < 0.741 µM | COc1cc(Nc2ncnc(-c3cccnc3Nc3ccccc3)n2)ccc1NC(=O)CCCN1CCNCC1 [Compound 1093] |
| > 9.77 µM | > 9.77 µM | > 9.77 µM | 7.6 to 9.77 µM | 0.869 to 5.21 µM | < 0.869 µM | > 9.77 µM | > 9.77 µM | > 9.77 µM | 0.869 to 5.21 µM | COc1cccc(Nc2ncccc2-c2ncnc(Nc3cc(OC)c(OC)c(OC)c3)n2)c1 [Compound 829] |
| < 0.9 µM | > 10.1 µM | > 10.1 µM | > 10.1 µM | > 10.1 µM | < 0.9 µM | > 10.1 µM | > 10.1 µM | > 10.1 µM | < 0.9 µM | COc1cc(Nc2ncnc(-c3cccnc3Nc3ccccc3C)n2)cc(OC)c1OC [Compound 833] |
| 0.841 to 5.05 µM | > 9.46 µM | > 9.46 µM | 5.05 to 7.36 µM | 7.36 to 9.46 µM | < 0.841 µM | > 9.46 µM | > 9.46 µM | 7.36 to 9.46 µM | < 0.841 µM | c1ccc(CNc2nc3ccccc3n2-c2ncnc(Nc3cccc(Cn4ccnn4)c3)n2)nc1 [Compound 962] |
| > 11.4 µM | > 11.4 µM | 8.84 to 11.4 µM | < 1.01 µM | 1.01 to 6.06 µM | 6.06 to 8.84 µM | 6.06 to 8.84 µM | > 11.4 µM | > 11.4 µM | 1.01 to 6.06 µM | CN(c1cccc(Cl)c1)c1ncnc(Nc2cccc(OC(F)(F)F)c2)n1 [Compound 875] |
| > 10.4 µM | 5.52 to 8.06 µM | 0.921 to 5.52 µM | 0.921 to 5.52 µM | 0.921 to 5.52 µM | < 0.921 µM | 0.921 to 5.52 µM | 8.06 to 10.4 µM | 0.921 to 5.52 µM | 0.921 to 5.52 µM | O=C(O)CCNC(=O)c1ccc(Nc2ncnc(Nc3cc(-c4ccco4)[nH]n3)n2)cc1 [Compound 885] |
